Publication PMC7866232, “New Substituted 5-Benzylideno-2-Adamantylthiazol[3,2-b][1,2,4]Triazol-6(5H)ones as Possible Anti-Inflammatory Agents” (Molecules, 2021)
Like-named read-outs stand apart in the source and are kept apart here.

Assays:
[1] = system: carrageenin-induced mouse paw edema; assay: Carrageenin-induced mouse paw edema (CPE), in vivo anti-inflammatory activity; settings: for inhibition in vivo at 10 µmol/kg: Mus musculus, ip, mice, 0.01 mmol/kg body weight intraperitoneally, given simultaneously with carrageenin (2%, 0.05 mL)
Experimental: The in vivo anti-inflammatory effect of the tested compounds was assessed by using the functional model of carrageenin-induced mouse paw edema and is presented as the percentage of inhibition of induction of edema at the right hind paw (Table 1).
Edema was measured by weight increase of the right hind paw in comparison to the […] left paw.
Twenty-five thiazolo[3,2-b]1,2,4-triazole derivatives, previously synthesized were evaluated for their anti-inflammatory activity, in vivo using groups of 6–10 mice of R’’’ strain.
The anti-inflammatory activity of the compounds synthesized was studied with the Carragenin-Induced Paw Edema acute inflammation test using an aqueous carrageenin solution (2%, 0,05 mL), [14] which was injected intradermally in the footpad of the right hind limb muscle (mice R’’’ groups of 6–10 animals), whereas the left end serves as a reference. In the experimental procedure both sex male mice were used, excluding pregnant. Animals were fasted during the time of the experiment. The tested compounds (0.01 mmol/kg body weight), were suspended in water, with few drops of Tween 80 and ground in a mortar before use and were given intraperitoneally simultaneously with the carrageenin injection.

[2] = molecular target: T1, ovine COX-1 (Ovis aries, UniProt P05979); assay: COX inhibitor screening assay in vitro, COX-1; assay type: biochemical; settings: for inhibition at 200 µM: read-out: COX-1 (%) inhibition
T1 construct: purchased Cayman Chemical Co., Ann Arbor, MI, USA
T1 sequence (P05979 25-600): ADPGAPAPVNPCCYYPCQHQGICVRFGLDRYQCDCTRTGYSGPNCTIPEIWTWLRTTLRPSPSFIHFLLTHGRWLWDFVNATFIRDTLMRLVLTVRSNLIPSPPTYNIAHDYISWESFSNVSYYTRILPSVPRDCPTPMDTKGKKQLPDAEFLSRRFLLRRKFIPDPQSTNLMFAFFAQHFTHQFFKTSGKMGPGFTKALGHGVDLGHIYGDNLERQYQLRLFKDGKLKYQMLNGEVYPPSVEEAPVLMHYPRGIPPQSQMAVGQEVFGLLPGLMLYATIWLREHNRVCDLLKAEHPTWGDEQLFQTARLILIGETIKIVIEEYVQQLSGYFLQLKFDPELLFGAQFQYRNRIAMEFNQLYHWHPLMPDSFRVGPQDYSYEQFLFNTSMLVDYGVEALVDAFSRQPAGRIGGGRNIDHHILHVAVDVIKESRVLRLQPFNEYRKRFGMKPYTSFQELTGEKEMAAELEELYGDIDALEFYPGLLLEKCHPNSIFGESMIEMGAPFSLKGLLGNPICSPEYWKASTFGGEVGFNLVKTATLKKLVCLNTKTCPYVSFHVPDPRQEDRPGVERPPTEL
Experimental: (§1) The COX-1 and COX-2 activities of the compounds were measured using ovine COX-1 and human recombinant COX-2 enzymes included in the “COX I inhibitor Screening Assay” kit provided by Cayman (Cayman Chemical Co., Ann Arbor, MI, USA). The assay directly measures PGF2 a produced by SnCl2 reduction of COX-derived PGH2. The prostanoid production was quantified via enzyme immunoassay using a broadly specific antibody that binds to all the major prostaglandin compounds. […]

[3] = molecular target: T2, human recombinant COX-2 (Homo sapiens, UniProt P35354); assay: COX inhibitor screening assay in vitro, COX-2; assay type: biochemical; settings: for inhibition at 200 µM: read-out: COX-2 (%) inhibition
T2 construct: purchased Cayman Chemical Co., Ann Arbor, MI, USA
T2 sequence (P35354 18-604): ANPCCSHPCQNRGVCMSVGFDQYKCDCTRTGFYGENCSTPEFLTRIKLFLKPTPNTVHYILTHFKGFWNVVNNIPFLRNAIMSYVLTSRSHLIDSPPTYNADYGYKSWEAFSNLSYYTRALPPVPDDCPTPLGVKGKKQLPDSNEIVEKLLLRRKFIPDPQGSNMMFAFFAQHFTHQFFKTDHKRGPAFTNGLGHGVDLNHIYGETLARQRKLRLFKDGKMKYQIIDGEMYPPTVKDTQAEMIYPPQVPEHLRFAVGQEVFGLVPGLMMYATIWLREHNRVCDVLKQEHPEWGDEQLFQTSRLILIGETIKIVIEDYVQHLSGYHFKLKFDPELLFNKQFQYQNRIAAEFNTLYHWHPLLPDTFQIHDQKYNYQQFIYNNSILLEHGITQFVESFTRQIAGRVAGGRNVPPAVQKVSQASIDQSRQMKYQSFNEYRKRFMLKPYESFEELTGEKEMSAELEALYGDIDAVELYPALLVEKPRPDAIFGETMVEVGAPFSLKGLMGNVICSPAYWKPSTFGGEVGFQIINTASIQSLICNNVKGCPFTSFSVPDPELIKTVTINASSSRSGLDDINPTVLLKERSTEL
Experimental: as §1

[4] = molecular target: T3, soybean lipoxygenase (Glycine max, UniProt P08170); assay: Soybean lipoxygenase inhibition in vitro; assay type: biochemical; settings: 0.1 mM sodium linoleate, 234 nm
T3 sequence (P08170 1-839): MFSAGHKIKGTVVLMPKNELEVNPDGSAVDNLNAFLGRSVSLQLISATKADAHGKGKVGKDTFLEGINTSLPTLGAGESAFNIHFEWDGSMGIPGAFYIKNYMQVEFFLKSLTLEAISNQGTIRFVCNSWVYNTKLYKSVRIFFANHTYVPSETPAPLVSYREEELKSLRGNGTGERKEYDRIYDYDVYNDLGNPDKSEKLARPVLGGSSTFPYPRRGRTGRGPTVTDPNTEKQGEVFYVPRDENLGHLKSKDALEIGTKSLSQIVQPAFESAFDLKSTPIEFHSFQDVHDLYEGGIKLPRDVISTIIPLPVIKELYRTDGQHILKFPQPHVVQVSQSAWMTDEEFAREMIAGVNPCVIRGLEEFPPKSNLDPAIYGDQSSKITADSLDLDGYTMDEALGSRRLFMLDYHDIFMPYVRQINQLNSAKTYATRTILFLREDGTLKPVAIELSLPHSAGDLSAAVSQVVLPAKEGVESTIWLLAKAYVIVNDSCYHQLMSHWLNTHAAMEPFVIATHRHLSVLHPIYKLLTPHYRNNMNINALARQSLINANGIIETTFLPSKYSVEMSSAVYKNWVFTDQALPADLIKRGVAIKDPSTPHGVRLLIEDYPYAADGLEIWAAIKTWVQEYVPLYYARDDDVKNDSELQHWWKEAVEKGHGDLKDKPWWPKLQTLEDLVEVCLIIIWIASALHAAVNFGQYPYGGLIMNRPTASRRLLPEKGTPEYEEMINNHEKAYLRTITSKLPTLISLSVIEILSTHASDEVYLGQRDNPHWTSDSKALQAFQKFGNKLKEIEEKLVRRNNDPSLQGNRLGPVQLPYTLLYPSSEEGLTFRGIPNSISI
Experimental: The compounds tested were dissolved in DMSO and preincubated for 4 min at 28 °C in the presence of 753 U/mL 5-soybean lipoxygenase (5-LOX). The enzyme reaction was triggered by addition of a final concentration of 0.1 mM sodium linoleate. The conversion of sodium linoleate 13-hydrouperoxylinoleic acid was measured at 234 nm. Absorbance was measured at time 0 and 3 min.

[5] = at 200 μM, 0.1 μM arachidonic acid

SMILES | inhibition in vivo at 10 µmol/kg [1] | inhibition at 200 µM [2, 5] | inhibition at 200 µM [3, 5] | LOX (%) inhibition [4] | other results
O=c1/c(=C/c2c(Cl)cccc2Cl)sc2nc(C34CC5CC(CC(C5)C3)C4)nn12 [Compound 25] | 32% |  |  |  | 
COc1cc(/C=c2\sc3nc(C45CC6CC(CC(C6)C4)C5)nn3c2=O)ccc1O [Compound 6] | 40 to 49% | 26.2% | 66% | 6.67% | IC50 [3]: > 50 µM
O=c1/c(=C/c2ccc(F)cc2)sc2nc(C34CC5CC(CC(C5)C3)C4)nn12 [Compound 16] | 51 to 67% | 19% | 0% | 16.13% | 
O=c1/c(=C/c2ccc(Cl)cc2)sc2nc(C34CC5CC(CC(C5)C3)C4)nn12 [Compound 22] | 51 to 67% |  |  |  | 
O=c1/c(=C/c2ccc([N+](=O)[O-])cc2)sc2nc(C34CC5CC(CC(C5)C3)C4)nn12 [Compound 14] | 40 to 49% |  |  |  | 
COc1ccc(/C=c2\sc3nc(C45CC6CC(CC(C6)C4)C5)nn3c2=O)cc1OC [Compound 9] | 40 to 49% |  |  |  | 
O=c1/c(=C/c2ccc(O)cc2)sc2nc(C34CC5CC(CC(C5)C3)C4)nn12 [Compound 3] | 37% | 93% | 25% | 28.58% | COX-1 IC50 fold lower than that of naproxen [2]: 30 fold; IC50 [2]: 1.28 µM
O=c1/c(=C/c2cccc(O)c2)sc2nc(C34CC5CC(CC(C5)C3)C4)nn12 [Compound 2] | 36% | 18% | 64% | 5.82% | IC50 [3]: > 50 µM
O=c1/c(=C/c2ccccc2Cl)sc2nc(C34CC5CC(CC(C5)C3)C4)nn12 [Compound 20] | 40 to 49% |  |  |  | 
O=c1/c(=C/c2cccc([N+](=O)[O-])c2)sc2nc(C34CC5CC(CC(C5)C3)C4)nn12 [Compound 13] | 15% |  |  |  | 
COc1cccc(/C=c2\sc3nc(C45CC6CC(CC(C6)C4)C5)nn3c2=O)c1O [Compound 5] | 51 to 67% |  |  |  | increased anti-inflammatory activity compared to indomethacin ([1]; carrageenin paw edema, relative to indomethacin): 23%
O=c1/c(=C/c2cccc(F)c2)sc2nc(C34CC5CC(CC(C5)C3)C4)nn12 [Compound 15] | 51 to 67% | 36% | 23% | 27.15% | 
O=c1/c(=C/c2ccc(O)cc2O)sc2nc(C34CC5CC(CC(C5)C3)C4)nn12 [Compound 4] | 40 to 49% |  |  |  | 
O=c1/c(=C/c2ccccc2[N+](=O)[O-])sc2nc(C34CC5CC(CC(C5)C3)C4)nn12 [Compound 12] | 40 to 49% |  |  |  | 
CN(C)c1ccc(/C=c2\sc3nc(C45CC6CC(CC(C6)C4)C5)nn3c2=O)cc1 [Compound 11] | 51 to 67% |  |  |  | 
O=c1/c(=C/c2ccc(Br)cc2)sc2nc(C34CC5CC(CC(C5)C3)C4)nn12 [Compound 19] | 51 to 67% | 16% | 36% | 8.07% | 
O=c1/c(=C/c2ccccc2)sc2nc(C34CC5CC(CC(C5)C3)C4)nn12 [Compound 1] | 40 to 49% |  |  |  | 
O=c1/c(=C/c2cccc(Cl)c2)sc2nc(C34CC5CC(CC(C5)C3)C4)nn12 [Compound 21] | 40 to 49% |  |  |  | 
O=c1/c(=C/c2cccc(Br)c2)sc2nc(C34CC5CC(CC(C5)C3)C4)nn12 [Compound 18] | 51 to 67% | 0% | 37% | 31.43% | 
O=c1/c(=C/c2ccc(Cl)cc2Cl)sc2nc(C34CC5CC(CC(C5)C3)C4)nn12 [Compound 24] | 37% |  |  |  | 
COc1ccc2cc([C@H](C)C(=O)O)ccc2c1 [Naproxen, reference compound] |  |  |  |  | inhibition at 200 µM [2]: 60%; inhibition at 200 µM [3]: 65%
O=c1/c(=C/c2cccc(Cl)c2Cl)sc2nc(C34CC5CC(CC(C5)C3)C4)nn12 [Compound 23] | 37% | 46% | 20% | 11.43% | 
COc1cc(/C=c2\sc3nc(C45CC6CC(CC(C6)C4)C5)nn3c2=O)cc(OC)c1O [Compound 7] | 36% | 22% | 25% | 16.13% | 
COc1cc(/C=c2\sc3nc(C45CC6CC(CC(C6)C4)C5)nn3c2=O)cc(OC)c1OC [Compound 10] | 40 to 49% |  |  |  | 
O=c1/c(=C/c2ccccc2Br)sc2nc(C34CC5CC(CC(C5)C3)C4)nn12 [Compound 17] | 51 to 67% | 16% | 0% | 17.15% | 
